According to PubChem BioAssay AID2060885 (Molecular Pharmacology Branch, DTP, NCI, 2025):

Tested on: NCI-H23 complex spheroids with HUVEC/MSC, viability
Assay: Anticancer human tumor NCI-H23 cell line growth inhibition [RAS];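 further: spheroids exposed to compound for 7 days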;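 on viability, T/C: 100% = DMSO vehicle control viability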
Conditions: for IC50: curve of first compound; for viability, T/C: stronger effect = lower value
Outline: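 Agents were tested in combination matrices in half-log decrements from a top concentration at or near clinical Cmax (10 microM if undetermined). Targets were multi-cell spheroids of tumour lines plus HUVEC and MSC stromal cells.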

CC(=O)OC12COC1CC(O)C1(C)C(=O)C(O)C3=C(C)C(OC(=O)C(O)C(NC(=O)OC(C)(C)C)c4ccccc4)CC(O)(C(OC(=O)c4ccccc4)C21)C3(C)C (stereo unspecified) + C#Cc1c(F)ccc2cc(O)cc(-c3ncc4c(N5CC6CCC(C5)N6)nc(OCC56CCCN5CC(F)C6)nc4c3F)c12
IC50 (second compound 0.0316 µM): < 31.6 nM | IC50 (second compound 0.1 µM): < 31.6 nM | IC50 (second compound 0.316 µM): < 31.6 nM | IC50 (second compound 1 µM): < 31.6 nM | IC50 (second compound 3.16 µM): < 31.6 nM | IC50 (second compound 10 µM): < 31.6 nM | viability, T/C (second compound 0.0316 µM, first compound 0.0316 µM): 30.7% | viability, T/C (second compound 0.0316 µM, first compound 0.1 µM): 41.2% | viability, T/C (second compound 0.0316 µM, first compound 0.316 µM): 37.2% | viability, T/C (second compound 0.0316 µM, first compound 1 µM): 32.2% | viability, T/C (second compound 0.0316 µM, first compound 3.16 µM): 47.1% | viability, T/C (second compound 0.0316 µM, first compound 10 µM): 62.8% | viability, T/C (second compound 0.1 µM, first compound 0.0316 µM): 27.8% | viability, T/C (second compound 0.1 µM, first compound 0.1 µM): 36.6% | viability, T/C (second compound 0.1 µM, first compound 0.316 µM): 34.6% | viability, T/C (second compound 0.1 µM, first compound 1 µM): 30.9% | viability, T/C (second compound 0.1 µM, first compound 3.16 µM): 56.1% | viability, T/C (second compound 0.1 µM, first compound 10 µM): 71.2% | viability, T/C (second compound 0.316 µM, first compound 0.0316 µM): 34.1% | viability, T/C (second compound 0.316 µM, first compound 0.1 µM): 35.6% | viability, T/C (second compound 0.316 µM, first compound 0.316 µM): 31.3% | viability, T/C (second compound 0.316 µM, first compound 1 µM): 32% | viability, T/C (second compound 0.316 µM, first compound 3.16 µM): 46.1% | viability, T/C (second compound 0.316 µM, first compound 10 µM): 57.2% | viability, T/C (second compound 1 µM, first compound 0.0316 µM): 27.3% | viability, T/C (second compound 1 µM, first compound 0.1 µM): 30.5% | viability, T/C (second compound 1 µM, first compound 0.316 µM): 32% | viability, T/C (second compound 1 µM, first compound 1 µM): 23.6% | viability, T/C (second compound 1 µM, first compound 3.16 µM): 36.4% | viability, T/C (second compound 1 µM, first compound 10 µM): 46.6% | viability, T/C (second compound 3.16 µM, first compound 0.0316 µM): 20.1% | viability, T/C (second compound 3.16 µM, first compound 0.1 µM): 21.6% | viability, T/C (second compound 3.16 µM, first compound 0.316 µM): 21.2% | viability, T/C (second compound 3.16 µM, first compound 1 µM): 23.6% | viability, T/C (second compound 3.16 µM, first compound 3.16 µM): 25.6% | viability, T/C (second compound 3.16 µM, first compound 10 µM): 39% | viability, T/C (second compound 10 µM, first compound 0.0316 µM): 17.9% | viability, T/C (second compound 10 µM, first compound 0.1 µM): 20.7% | viability, T/C (second compound 10 µM, first compound 0.316 µM): 16.5% | viability, T/C (second compound 10 µM, first compound 1 µM): 19.1% | viability, T/C (second compound 10 µM, first compound 3.16 µM): 23.1% | viability, T/C (second compound 10 µM, first compound 10 µM): 30.5%

CC1(C)CCC(Nc2ncc(C(F)(F)F)c(-c3c[nH]c4c(P(C)(C)=O)c(C#N)ccc34)n2)CN1 (stereo unspecified) + CCn1c(-c2cccnc2C(C)OC)c2c3cc(ccc31)N1CCOC(CC(NC(=O)C(C(C)C)N(C)C(=O)C3(F)CCN(C(=O)C#CC(C)(C)N(C)C)CC3)C(=O)N3CCCC(N3)C(=O)OCC(C)(C)C2)C1
IC50 (second compound 0.000949 µM): < 0.949 nM | IC50 (second compound 0.003 µM): < 0.949 nM | IC50 (second compound 0.00949 µM): < 0.949 nM | IC50 (second compound 0.03 µM): < 0.949 nM | IC50 (second compound 0.0949 µM): < 0.949 nM | IC50 (second compound 0.3 µM): < 0.949 nM | viability, T/C (second compound 0.000949 µM, first compound 0.000949 µM): 26% | viability, T/C (second compound 0.000949 µM, first compound 0.003 µM): 21.2% | viability, T/C (second compound 0.000949 µM, first compound 0.00949 µM): 14% | viability, T/C (second compound 0.000949 µM, first compound 0.03 µM): 16.1% | viability, T/C (second compound 0.000949 µM, first compound 0.0949 µM): 14.7% | viability, T/C (second compound 0.000949 µM, first compound 0.3 µM): 11.3% | viability, T/C (second compound 0.003 µM, first compound 0.000949 µM): 22.4% | viability, T/C (second compound 0.003 µM, first compound 0.003 µM): 17.4% | viability, T/C (second compound 0.003 µM, first compound 0.00949 µM): 15.5% | viability, T/C (second compound 0.003 µM, first compound 0.03 µM): 15.2% | viability, T/C (second compound 0.003 µM, first compound 0.0949 µM): 15% | viability, T/C (second compound 0.003 µM, first compound 0.3 µM): 11.6% | viability, T/C (second compound 0.00949 µM, first compound 0.000949 µM): 23.9% | viability, T/C (second compound 0.00949 µM, first compound 0.003 µM): 17.5% | viability, T/C (second compound 0.00949 µM, first compound 0.00949 µM): 15.9% | viability, T/C (second compound 0.00949 µM, first compound 0.03 µM): 15% | viability, T/C (second compound 0.00949 µM, first compound 0.0949 µM): 13.1% | viability, T/C (second compound 0.00949 µM, first compound 0.3 µM): 13.2% | viability, T/C (second compound 0.03 µM, first compound 0.000949 µM): 21.9% | viability, T/C (second compound 0.03 µM, first compound 0.003 µM): 19.2% | viability, T/C (second compound 0.03 µM, first compound 0.00949 µM): 17.8% | viability, T/C (second compound 0.03 µM, first compound 0.03 µM): 15.7% | viability, T/C (second compound 0.03 µM, first compound 0.0949 µM): 12.4% | viability, T/C (second compound 0.03 µM, first compound 0.3 µM): 13.3% | viability, T/C (second compound 0.0949 µM, first compound 0.000949 µM): 21.8% | viability, T/C (second compound 0.0949 µM, first compound 0.003 µM): 19.2% | viability, T/C (second compound 0.0949 µM, first compound 0.00949 µM): 16.8% | viability, T/C (second compound 0.0949 µM, first compound 0.03 µM): 13.8% | viability, T/C (second compound 0.0949 µM, first compound 0.0949 µM): 11.8% | viability, T/C (second compound 0.0949 µM, first compound 0.3 µM): 13.2% | viability, T/C (second compound 0.3 µM, first compound 0.000949 µM): 18.8% | viability, T/C (second compound 0.3 µM, first compound 0.003 µM): 17.9% | viability, T/C (second compound 0.3 µM, first compound 0.00949 µM): 15.3% | viability, T/C (second compound 0.3 µM, first compound 0.03 µM): 12.3% | viability, T/C (second compound 0.3 µM, first compound 0.0949 µM): 11.3% | viability, T/C (second compound 0.3 µM, first compound 0.3 µM): 13.7%

O=C(c1ccc(F)c(F)c1Nc1ccc(I)cc1F)N1CC(O)([C@@H]2CCCCN2)C1 + CCn1c(-c2cccnc2C(C)OC)c2c3cc(ccc31)N1CCOC(CC(NC(=O)C(C(C)C)N(C)C(=O)C3(F)CCN(C(=O)C#CC(C)(C)N(C)C)CC3)C(=O)N3CCCC(N3)C(=O)OCC(C)(C)C2)C1
IC50 (second compound 0.000949 µM): < 3.16 nM | IC50 (second compound 0.003 µM): 26 nM | IC50 (second compound 0.00949 µM): < 3.16 nM | IC50 (second compound 0.03 µM): < 3.16 nM | IC50 (second compound 0.0949 µM): < 3.16 nM | IC50 (second compound 0.3 µM): < 3.16 nM | viability, T/C (second compound 0.000949 µM, first compound 0.00316 µM): 32.3% | viability, T/C (second compound 0.000949 µM, first compound 0.01 µM): 33.2% | viability, T/C (second compound 0.000949 µM, first compound 0.0316 µM): 26.2% | viability, T/C (second compound 0.000949 µM, first compound 0.1 µM): 31.8% | viability, T/C (second compound 0.000949 µM, first compound 0.316 µM): 16.7% | viability, T/C (second compound 0.000949 µM, first compound 1 µM): 6.86% | viability, T/C (second compound 0.003 µM, first compound 0.00316 µM): 112% | viability, T/C (second compound 0.003 µM, first compound 0.01 µM): 54.8% | viability, T/C (second compound 0.003 µM, first compound 0.0316 µM): 51.7% | viability, T/C (second compound 0.003 µM, first compound 0.1 µM): 42.8% | viability, T/C (second compound 0.003 µM, first compound 0.316 µM): 27.8% | viability, T/C (second compound 0.003 µM, first compound 1 µM): 10.3% | viability, T/C (second compound 0.00949 µM, first compound 0.00316 µM): 34.5% | viability, T/C (second compound 0.00949 µM, first compound 0.01 µM): 25.4% | viability, T/C (second compound 0.00949 µM, first compound 0.0316 µM): 29.8% | viability, T/C (second compound 0.00949 µM, first compound 0.1 µM): 25.9% | viability, T/C (second compound 0.00949 µM, first compound 0.316 µM): 14.6% | viability, T/C (second compound 0.00949 µM, first compound 1 µM): 8.22% | viability, T/C (second compound 0.03 µM, first compound 0.00316 µM): 30.1% | viability, T/C (second compound 0.03 µM, first compound 0.01 µM): 30.7% | viability, T/C (second compound 0.03 µM, first compound 0.0316 µM): 28.3% | viability, T/C (second compound 0.03 µM, first compound 0.1 µM): 25.4% | viability, T/C (second compound 0.03 µM, first compound 0.316 µM): 12.6% | viability, T/C (second compound 0.03 µM, first compound 1 µM): 9.45% | viability, T/C (second compound 0.0949 µM, first compound 0.00316 µM): 29.1% | viability, T/C (second compound 0.0949 µM, first compound 0.01 µM): 30.2% | viability, T/C (second compound 0.0949 µM, first compound 0.0316 µM): 30.9% | viability, T/C (second compound 0.0949 µM, first compound 0.1 µM): 22.3% | viability, T/C (second compound 0.0949 µM, first compound 0.316 µM): 11% | viability, T/C (second compound 0.0949 µM, first compound 1 µM): 9.76% | viability, T/C (second compound 0.3 µM, first compound 0.00316 µM): 29.4% | viability, T/C (second compound 0.3 µM, first compound 0.01 µM): 26.3% | viability, T/C (second compound 0.3 µM, first compound 0.0316 µM): 26.5% | viability, T/C (second compound 0.3 µM, first compound 0.1 µM): 19.8% | viability, T/C (second compound 0.3 µM, first compound 0.316 µM): 11% | viability, T/C (second compound 0.3 µM, first compound 1 µM): 9.07%
